Reference: patent US20210338645A1, “SOLID DISPERSION OF RIFAMYCIN-NITROIMIDAZOLE COUPLING MOLECULE AND APPLICATION THEREOF” (TenNor Therapeutics Limited, priority 2018, published 2021)
Like-named read-outs stand apart in the source and are kept apart here.

Tests used:
Assay type in all cases: physicochemical
[1] = Approximate solubility of the coupling molecule in spray drying solvents; conditions: organic solvent or mixture, thermodynamic from solid
Protocol: In this embodiment, the solvent is firstly screened and determined: the solvent comprises one or a combination of more of methanol, ethanol, acetone, ethyl acetate, tetrahydrofuran and dichloromethane. About 10 mg of rifamycin-nitroimidazole coupling molecules are weighed into a 1.5 mL liquid phase bottle, and appropriate volumes of different solvents are added respectively to observe and judge whether the coupling molecule is completely dissolved and judge approximate solubility of the coupling molecule.

[2] = Dissolution of binary solid dispersion film in simulated gastric fluid of pH 1.2; conditions: simulated gastric fluid pH 1.2, 25° C.
Protocol: (§1) Preparation of binary solid dispersion (ASD for short): About 25 mg of rifaomycin-nitroimidazole coupling molecules and about 25 mg of carrier excipient are weighed, and placed into the same 40 mL glass bottle. The open 40 mL glass bottle is covered with perforated aluminum-foil paper to prevent cross contamination and placed into a 35° C. vacuum drying oven for rapid volatilization. After 40 hours of vacuum and full drying, the binary dispersion forms a purple film on the bottom of the bottle to obtain a binary solid dispersion film.
(§2) The prepared binary solid dispersion film is subjected to dissolution experiments: In the 40 mL glass bottle containing solid dispersion films, 0.5 mL of simulated gastric fluid of pH 1.2 and […] of acetate buffer of pH 4.5 are respectively taken as dissolution media (25° C.) (the target concentration is 50 mg ml), to seal the glass bottle and complete the vortex processing for 5 seconds; 100 μL of liquid is taken as an initial sampling point (0 minute) and then the glass bottle is shaken by a rocking bed; 100 μL of solution is taken into centrifugal tubes respectively after 10 minutes, 30 minutes, and 60 minutes, to perform the centrifugation at a rotational speed of 14000 rpm for 5 minutes; and the supernatant is taken into a small liquid phase bottle and is diluted with the acetonitrile to a suitable multiple, and high-performance liquid chromatograph is taken into the glass bottle, to record a chromatogram map and calculate the concentration according to the peak area by an external standard method.

[3] = Dissolution of binary solid dispersion film in acetate buffer of pH 4.5; conditions: for Drug Concentration: acetate buffer pH 4.5, 25° C.
Protocol: as §1, §2

[4] = Two-hour solubility of API in functional excipient solution
[5] = Dissolution of spray-dried solid dispersion powder in acetate buffer of pH 4.5 (target 4 mg/mL); conditions: acetate buffer pH 4.5, 37° C.
Protocol: About 344 mg of prepared solid dispersions are taken and poured into a 40 mL glass bottle; 20 mL of acetate buffer of pH 4.5 (preheated to 37° C.) is used as the dissolution medium (the target concentration of the rifaomycin-nitroimidazole coupling molecule is 4 mg/mL); the glass bottle is sealed; and the above materials are whirled for 5 seconds and placed on a heated magnetic stirrer at 37° C. after a stir bar is inserted. The rotational speed is 300 rpm. After 10 min, 20 min, 40 min, 60 min, 90 min, 120 min and 180 min, 500 μL of the liquid is taken into the centrifuge tube and centrifuged at 14000 rpm for 3 min. The supernatant liquid is taken into the liquid phase bottle and diluted to 10 times with acetonitrile as the solution to be tested, the high performance liquid chromatography is injected and the chromatogram is recorded, and the concentration is calculated by the peak area using the external standard method.

[6] = Two-hour solubility of API in functional excipient solution; conditions: for Two-hour Dissolution Rate: 37° C.; for increase of two-hour dissolution rate compared to API powder control: pH 4.5 system
Protocol: In order to further increase the dissolution performance of the rifamycin-nitroimidazole coupling molecule, sodium dodecyl sulfate, meglumine, VE-TPGS or Tween 80 is respectively added in the simulated gastric fluid system of pH=1.2 or the acetate buffer system of pH=4.5, to prepare the dissolution medium containing 3 mg/mL of functional excipient. About 100 mg (or 20 mg) of rifamycin-nitroimidazole coupling molecules are weighed and put into a 1.5 ml high-performance liquid phase bottle, 1 ml of simulated gastric fluid of pH 1.2 (or acetate buffer of pH 4.5) containing functional excipient is added, and the rifamycin-nitroimidazole coupling molecules are put into a constant temperature mixing instrument at 37° C., the rotation speed is 700 rpm, and after 120 minutes, 500 μl of liquid is taken into a centrifuge tube and centrifuged at 14,000 rpm for 5 min. The supernatant liquid is centrifuged again in the same condition, and the supernatant liquid after twice centrifugation is taken into the liquid phase bottle, and diluted to a proper amount of times with acetonitrile as the solution to be tested, a high performance liquid chromatograph is injected to record a chromatogram, and the concentration is calculated by a peak area using an external standard method.

[7] = simulated gastric fluid pH 1.2, no functional excipient
[8] = acetate buffer pH 4.5, Meglumine
[9] = acetate buffer pH 4.5, no functional excipient
[10] = simulated gastric fluid pH 1.2, SLS
[11] = simulated gastric fluid pH 1.2, Tween80
[12] = simulated gastric fluid pH 1.2, VE-TPGS

Q: Which results are given for `CO[C@H]1/C=C/O[C@@]2(C)Oc3c(C)c(O)c4c(c3C2=O)C2=NC3(CCN(CCn5c([N+](=O)[O-])cnc5C)CC3)NC2=C(NC(=O)/C(C)=C\C=C\[C@H](C)[C@H](O)[C@@H](C)[C@@H](O)[C@@H](C)[C@H](OC(C)=O)[C@@H]1C)C4=O` [API]?
A: solubility ([1]; acetone, read-out: Approximate Solubility): > 300 mg/mL; solubility ([1]; dichloromethane, read-out: Approximate Solubility): > 300 mg/mL; solubility ([1]; ethanol, read-out: Approximate Solubility): 167 to 200 mg/mL; solubility ([1]; ethyl acetate, read-out: Approximate Solubility): 167 to 200 mg/mL; solubility ([1]; methanol, read-out: Approximate Solubility): > 300 mg/mL; solubility ([1]; various common spray drying solvents, read-out: Solubility): > 100 mg/mL; solubility ([1]; tetrahydrofuran, read-out: Approximate Solubility): > 200 mg/mL; pH ([2]; dissolution medium): 2.0; Phenomenon [2]: Clear; Drug Concentration ([2]; 0 min): 10000 µg/mL; Drug Concentration ([2]; 10 min): 46400 µg/mL; Drug Concentration ([2]; 30 min): 54700 µg/mL; Drug Concentration ([2]; 60 min): 53500 µg/mL; Phenomenon ([3]; acetate buffer pH 4.5): Clear solution, incomplete dissolved film; Drug Concentration ([3]; 0 min): 10 µg/mL; Drug Concentration ([3]; 10 min): 290 µg/mL; Drug Concentration ([3]; 30 min): 340 µg/mL; Drug Concentration ([3]; 60 min): 370 µg/mL; pH ([3]; dissolution medium, acetate buffer pH 4.5): 4.5; Two-hour Dissolution Rate ([4]; 100 mg API + 1 mL simulated gastric fluid pH 1.2, no functional excipient, 37° C.): 9.8 mg/mL; Final pH [4, 7]: 2.5; Phenomenon [5]: Inhomogeneous; Drug Concentration ([5]; 10 Min): 210 µg/mL; Drug Concentration ([5]; 20 Min): 170 µg/mL; Drug Concentration ([5]; 40 Min): 190 µg/mL; Drug Concentration ([5]; 60 Min): 180 µg/mL; Drug Concentration ([5]; 90 Min): 180 µg/mL; Drug Concentration ([5]; 120 Min): 180 µg/mL; Drug Concentration ([5]; 180 Min): 160 µg/mL; pH ([5]; dissolution medium): 4.47; Two-hour Dissolution Rate ([6]; 20 mg API + 1 mL acetate buffer pH 4.5, Meglumine 3 mg/mL): 0.10 mg/mL; Two-hour Dissolution Rate ([6]; 20 mg API + 1 mL acetate buffer pH 4.5, SLS 3 mg/mL): 0.06 mg/mL; Two-hour Dissolution Rate ([6]; 20 mg API + 1 mL acetate buffer pH 4.5, Tween80 3 mg/mL): 0.61 mg/mL; Two-hour Dissolution Rate ([6]; 20 mg API + 1 mL acetate buffer pH 4.5, VE-TPGS 3 mg/mL): 0.84 mg/mL; Two-hour Dissolution Rate ([6]; 20 mg API + 1 mL acetate buffer pH 4.5, no functional excipient): 0.15 mg/mL; Two-hour Dissolution Rate ([6]; 100 mg API + 1 mL simulated gastric fluid pH 1.2, SLS 3 mg/mL): 6.7 mg/mL; Two-hour Dissolution Rate ([6]; 100 mg API + 1 mL simulated gastric fluid pH 1.2, Tween80 3 mg/mL): 11.7 mg/mL; Two-hour Dissolution Rate ([6]; 100 mg API + 1 mL simulated gastric fluid pH 1.2, VE-TPGS 3 mg/mL): 11.5 mg/mL; Final pH [6, 8]: 4.91; Physical Appearance [6, 8]: Suspension; Final pH ([6]; acetate buffer pH 4.5, SLS): 4.65; Physical Appearance ([6]; acetate buffer pH 4.5, SLS): Suspension; Final pH ([6]; acetate buffer pH 4.5, Tween80): 4.46; Physical Appearance ([6]; acetate buffer pH 4.5, Tween80): Suspension; Final pH ([6]; acetate buffer pH 4.5, VE-TPGS): 4.45; Physical Appearance ([6]; acetate buffer pH 4.5, VE-TPGS): Suspension; Final pH [6, 9]: 4.45; Physical Appearance [6, 9]: Suspension; increase of two-hour dissolution rate compared to API powder control ([6]; Tween-80): 4 times; increase of two-hour dissolution rate compared to API powder control ([6]; VE-TPGS): 6 times; Final pH [6, 10]: 2.72; Physical Appearance [6, 10]: Suspension; Final pH [6, 11]: 2.60; Physical Appearance [6, 11]: Suspension; Final pH [6, 12]: 2.60; Physical Appearance [6, 12]: Suspension; Physical Appearance [6, 7]: Suspension
